Data on 16 compounds can be found in ChEMBL document CHEMBL1275464, “Characterization of the carbapenem-hydrolyzing oxacillinase oxa-58 in an Acinetobacter genospecies 3 clinical isolate” (2008).

What all share (format): functional
For experiment [1], the system named is Acinetobacter baumannii. Kind of experiment: Antimicrobial activity against Acinetobacter baumannii isolate Ac058 expressing beta-lactamase Oxa-58 by broth microdilution method.
A further experiment has as its system Acinetobacter pittii. Kind of experiment: Antimicrobial activity against Acinetobacter genospecies 3 isolate Ac057 expressing beta-lactamase Oxa-58 by broth microdilution method.
Experiment [2] concerns Acinetobacter baumannii. Description: Antimicrobial activity against Acinetobacter baumannii isolate Ac058 expressing beta-lactamase Oxa-58 by broth microdilution method in presence of beta-lactamase inhibitor Sulbactam.

Converted amounts (≈) assume the structure as drawn.

In general, MIC refers to the lowest concentration that inhibits growth of the organism. For the compound `C[C@@H](O)[C@H]1C(=O)N2C(C(=O)O)=C(SCCNC=N)C[C@H]12` [IMIPENEM ANHYDROUS], the MIC against Acinetobacter baumannii [1] and against Acinetobacter pittii was over 32 µg/mL throughout.
For `NCC[C@H](O)C(=O)N[C@@H]1C[C@H](N)[C@@H](O[C@H]2O[C@H](CN)[C@@H](O)[C@H](O)[C@H]2O)[C@H](O)[C@H]1O[C@H]1O[C@H](CO)[C@@H](O)[C@H](N)[C@H]1O` [AMIKACIN], the figures for the MIC in the experiment on Acinetobacter baumannii [1] and against Acinetobacter pittii were 256 µg/mL (≈ 437 µM) and 0.5 µg/mL (≈ 0.854 µM), respectively.
With POLYMYXIN B, the MIC with Acinetobacter baumannii [1] was 1 µg/mL; with Acinetobacter pittii, 2 µg/mL.
In the same order, the values of `CO/N=C(\C(=O)N[C@@H]1C(=O)N2C(C(=O)[O-])=C(C[N+]3(C)CCCC3)CS[C@H]12)c1csc(N)n1` [CEFEPIME] are 64 µg/mL (≈ 133 µM) and 8 µg/mL (≈ 16.6 µM).
On to `C[C@@H](O)[C@H]1C(=O)N2C(C(=O)O)=C(S[C@@H]3CN[C@H](C(=O)N(C)C)C3)[C@H](C)[C@H]12` [MEROPENEM], for which the MIC with Acinetobacter baumannii [1] and with Acinetobacter pittii was 8 µg/mL (≈ 20.9 µM) in each case.
Regarding `CO[C@@]1(NC(=O)Cc2cccs2)C(=O)N2C(C(=O)O)=C(COC(N)=O)CS[C@@H]21` [CEFOXITIN], the MIC in the experiment with Acinetobacter baumannii [1] and in the experiment on Acinetobacter pittii was 256 µg/mL (≈ 599 µM) each time.
For the compound `C[C@H]1c2cccc(O)c2C(=O)C2=C(O)[C@]3(O)C(=O)C(C(N)=O)=C(O)[C@@H](N(C)C)[C@@H]3[C@@H](O)[C@@H]21.O` [DOXYCYCLINE], the minimum inhibitory concentration (MIC) was 16 µg/mL in the experiment on Acinetobacter baumannii [1] and under 0.5 µg/mL in the experiment with Acinetobacter pittii.
For `NC[C@H]1O[C@H](O[C@H]2[C@H](O)[C@@H](O[C@H]3O[C@H](CO)[C@@H](O)[C@H](N)[C@H]3O)[C@H](N)C[C@@H]2N)[C@H](N)C[C@@H]1O` [TOBRAMYCIN], in that order: 64 µg/mL (≈ 137 µM) and 0.25 µg/mL (≈ 0.535 µM).
On to `CC1(C)S[C@@H]2[C@H](NC(=O)[C@H](N)c3ccccc3)C(=O)N2[C@H]1C(=O)O` [AMPICILLIN], for which the MIC against Acinetobacter baumannii [1] is 256 µg/mL (≈ 733 µM); against Acinetobacter pittii, 256 µg/mL (≈ 733 µM); in the experiment on Acinetobacter baumannii [2], 64 µg/mL.
For `CC(C)(O/N=C(\C(=O)N[C@@H]1C(=O)N2C(C(=O)[O-])=C(C[n+]3ccccc3)CS[C@H]12)c1csc(N)n1)C(=O)O` [CEFTAZIDIME], the MIC against Acinetobacter baumannii [1] turned out to be 256 µg/mL (≈ 468 µM); against Acinetobacter pittii, 8 µg/mL (≈ 14.6 µM).
For GENTAMICIN, in that order: 16 µg/mL and under 1 µg/mL.
On to `CC(=O)OCC1=C(C(=O)O)N2C(=O)[C@@H](NC(=O)Cc3cccs3)[C@H]2SC1` [CEPHALOTHIN], for which the MIC with Acinetobacter baumannii [1] and in the experiment on Acinetobacter pittii was 256 µg/mL (≈ 646 µM) in each case.
`CCN1CCN(C(=O)N[C@@H](C(=O)N[C@@H]2C(=O)N3[C@@H]2SC(C)(C)[C@@H]3C(=O)O)c2ccccc2)C(=O)C1=O` [PIPERACILLIN]: the MIC against Acinetobacter baumannii [1] and with Acinetobacter pittii was 512 µg/mL (≈ 989 µM) throughout.
Regarding `CO[C@H]1/C=C/O[C@@]2(C)Oc3c(C)c(O)c4c(O)c(c(/C=N/N5CCN(C)CC5)c(O)c4c3C2=O)NC(=O)/C(C)=C\C=C\[C@H](C)[C@H](O)[C@@H](C)[C@@H](O)[C@@H](C)[C@H](OC(C)=O)[C@@H]1C` [RIFAMPIN], the MIC in the experiment on Acinetobacter baumannii [1] and in the experiment on Acinetobacter pittii was 2 µg/mL (≈ 2.43 µM) throughout.
For `CC[C@H]1OC(=O)[C@H](C)[C@@H](O[C@H]2C[C@@](C)(OC)[C@@H](O)[C@H](C)O2)[C@H](C)[C@@H](O[C@@H]2O[C@H](C)C[C@H](N(C)C)[C@H]2O)[C@](C)(O)C[C@@H](C)CN(C)[C@H](C)[C@@H](O)[C@]1(C)O` [AZITHROMYCIN], the results for the MIC in the experiment with Acinetobacter baumannii [1] and in the experiment on Acinetobacter pittii were 128 µg/mL (≈ 171 µM) and 4 µg/mL (≈ 5.34 µM), respectively.
For the compound `O=C(O)c1cn(C2CC2)c2cc(N3CCNCC3)c(F)cc2c1=O` [CIPROFLOXACIN], the MIC against Acinetobacter pittii was determined as 32 µg/mL (≈ 96.6 µM).
